Experimental data taken from patent publication US12115209B2, “ROMO1-derived antimicrobial peptides including lysine substitution and variants thereof” (KOREA UNIVERSITY RESEARCH AND BUSINESS FOUNDATION, priority 2019, dated 2024).
No end group written: not given here.

B1: MPVAVGPYGQSQPSCFDRVKMGFVMGCAVGMAAGALFGTFSCLRIGMRGRELMGGIGKTMMQSGGTFGTFMAIGMGIRC (protein)
chain: MPVAVGPYGQSQPSCFDRVKMGFVMGCAVGMAAGALFGTFSCLRIGMRGRELMGGIGKTMMQSGGTFGTFMAIGMGIRC
modifications: Homo sapiens Romo1

Experiments:
Assay in all cases: Minimum bactericidal concentration (MBC) assay
Format in all cases: cell-based
[1] = test system: Staphylococcus aureus (ATCC 29213); details: for MBC Staphylococcus aureus: Tables 11-21, no unit printed
Procedure: (§1) First, each of Pseudomonas aeruginosa (ATCC 27853) and Staphylococcus aureus (ATCC 29213) was cultured in 3% (w/v) TSB (tryptic soy broth) liquid medium at 37° C. and 200 rpm for 4 hours, and then further cultured under the same conditions for 3 hours to a concentration of 5×10^6 CFU/ml. Strain solutions were prepared by diluting each of the further cultured strains with SP (sodium phosphate; 10 mM sodium phosphate, 1% TSB) buffer to a final concentration of 2×10^5 CFU/ml.
(§2) Then, each peptide at varying concentrations (0 μg/ml to 300 μg/ml) was dispensed into each well of a 96-well microplate, and 100 μl (1×10^5 CFU/ml) of each of the prepared strain solutions was added thereto, mixed therewith, and allowed to react with the peptide in an incubator at 37° C. for 1 hour.
(§3) In addition, 30 g/L of TS (tryptic soy) and 15 g/L of agar were dissolved in distilled water and sterilized, and then 25 ml of the solution was poured onto a 100 mm round plate and solidified at room temperature for one day or more, thereby preparing a TS agar plate. 10 μl of each reaction solution of the peptide and the strain was plated on the TS agar plate at a constant size, and incubated in an incubator at 37° C. for 18 hours, and then colony formation on the plate was checked. The minimum bactericidal concentration was defined as the minimum concentration of the peptide at which no colony was formed, and the experimental results are shown in Table 1 below.

[2] = test system: Pseudomonas aeruginosa (ATCC 27853); details: for MBC Pseudomonas aeruginosa: Tables 11-21, no unit printed
Procedure: as §1, §2, §3

[3] = test system: Methicillin-resistant Staphylococcus aureus (MRSA, ATCC 33591); details: Tables 11-21, no unit printed
Procedure: as §1, with “2×10^5 CFU/ml. […]” for “2×10^5 CFU/ml.”
as §3, with “checked.” for “checked. The minimum bactericidal concentration was defined as the minimum concentration of the peptide at which no colony was formed, and the experimental results are shown in Table 1 below.”
Specifically, each type of bacteria was cultured in 3% (w/v) TSB (tryptic soy broth) liquid medium at 37° C. and 200 rpm for 4 hours, and then further cultured under the same conditions for 3 hours to a concentration of 5×10^6 CFU/ml. Strain solutions were prepared by diluting each of the further cultured strains with SP buffer to a final concentration of 2×10^5 CFU/ml.
as §2, with “Then, the KU-5878” for “Then, each”
In addition, 10 μl of each reaction solution of the peptide and the strain was plated on the TS agar plate at a constant size, and incubated in an incubator at 37° C. for 18 hours, and then colony formation on the plate was checked.

[4] = test system: CRPA; details: Tables 11-21, no unit printed

| Molecule | MBC Staphylococcus aureus [1] | MBC Pseudomonas aeruginosa [2] | MBC MRSA [3] | MBC CRPA [4] | MBC value (μg/ml) against Staphylococcus aureus ([1]; ATCC 29213, reaction 37° C. 1 hour, no bovine serum) | MBC value (μg/ml) against Pseudomonas aeruginosa ([2]; ATCC 27853, reaction 37° C. 1 hour, no bovine serum) |
| --- | --- | --- | --- | --- | --- | --- |
| KTMMQSGGTFGTFMAIGMGIA [KU-5878-R78A] | > 300 µg/mL | > 300 µg/mL | > 300 µg/mL | > 300 µg/mL |  |  |
| KTMMQTGGTFGTFMAIGMGIR [KU-5878-S63T] | > 300 µg/mL | > 300 µg/mL | > 300 µg/mL | > 300 µg/mL |  |  |
| KT-MQS-GTFGTFMAIGMGIR [5878-d60M, d64G] | 100 µg/mL | 100 µg/mL | 110 µg/mL | 100 µg/mL |  |  |
| KTMMQSGGTFGTFMAKGMGIR [KU-5878-I73K] | > 300 µg/mL | > 300 µg/mL | > 300 µg/mL | > 300 µg/mL |  |  |
| KTMMQSGGTFGTFMAIGMAIR [KU-5878-G76A] | > 300 µg/mL | > 300 µg/mL | > 300 µg/mL | > 300 µg/mL |  |  |
| KKMMKKGGKFGT-MAIGMGIR [5878 K4-d70F] | 140 µg/mL | 100 µg/mL | 110 µg/mL | 160 µg/mL |  |  |
| KTMMQSGGTFGTFMAIGMG-R [Peptide 5878-d77I] | > 300 µg/mL | > 300 µg/mL | > 300 µg/mL | > 300 µg/mL |  |  |
| KTMMQSGGSFGTFMAIGMGIR [KU-5878-T66S] | > 300 µg/mL | > 300 µg/mL | > 300 µg/mL | > 300 µg/mL |  |  |
| KTMMQSGGRFGTFMAIGMGIR [KU-5878-T66R] | 90 µg/mL | 80 µg/mL | 90 µg/mL | 80 µg/mL |  |  |
| KTMMQSGGTFGTFMAIGMGKR [KU-5878-I77K] | > 300 µg/mL | > 300 µg/mL | > 300 µg/mL | > 300 µg/mL |  |  |
| KTMMQSGGT-GTFMAIGMGIR [Peptide 5878-d67F] | 200 µg/mL | 200 µg/mL | 200 µg/mL | 200 µg/mL |  |  |
| KTMMQSGGTFGTFMAIGMGIK [KU-5878-R78K] | > 300 µg/mL | > 300 µg/mL | > 300 µg/mL | > 300 µg/mL |  |  |
| KTMMRSGGTFGTFMAIGMGIR [KU-5878-Q62R] | 80 µg/mL | 80 µg/mL | 90 µg/mL | 80 µg/mL |  |  |
| KTMMQSGGTFGTFMA-GMGIR [Peptide 5878-4731] | > 300 µg/mL | > 300 µg/mL | > 300 µg/mL | > 300 µg/mL |  |  |
| KTMMQKGGTFGTFMAIGMGIR [KU-5878-S63K] | 50 µg/mL | 60 µg/mL | 50 µg/mL | 50 µg/mL |  |  |
| KTMMQSGGTFG-FMAIGMGIR [Peptide 5878-d69T] | 120 µg/mL | 120 µg/mL | 140 µg/mL | 140 µg/mL |  |  |
| -TMMQSGGTFGTFMAIGMGIR [Peptide 5878-d58K] | 300 µg/mL | 300 µg/mL | > 300 µg/mL | 300 µg/mL |  |  |
| KTMMQSGGTFGT-MAIGMGIR [Peptide 5878-d70F] | 200 µg/mL | 200 µg/mL | 200 µg/mL | 200 µg/mL |  |  |
| KTMMQSGGTFGKFMAIGMGIR [KU-5878-T69K] | 130 µg/mL | 140 µg/mL | 150 µg/mL | 150 µg/mL |  |  |
| KTMMQSGGTFGTF-AIG-GIR [5878-d71M, d75M] | 250 µg/mL | 300 µg/mL | 300 µg/mL | 300 µg/mL |  |  |
| KTMMQSGGTFGTFMAIGMGGR [KU-5878-I77G] | 90 µg/mL | 80 µg/mL | 90 µg/mL | 100 µg/mL |  |  |

| Molecule | MBC Staphylococcus aureus [1] | MBC Pseudomonas aeruginosa [2] | MBC MRSA [3] | MBC CRPA [4] | MBC value (μg/ml) against Staphylococcus aureus ([1]; ATCC 29213, reaction 37° C. 1 hour, no bovine serum) | MBC value (μg/ml) against Pseudomonas aeruginosa ([2]; ATCC 27853, reaction 37° C. 1 hour, no bovine serum) |
| --- | --- | --- | --- | --- | --- | --- |
| KTMMQSGGTFGTWMAIGMGIR [KU-5878-F70W] | 300 µg/mL | 300 µg/mL | > 300 µg/mL | 300 µg/mL |  |  |
| KTMMQS-GTFGTF-AIGM-IR [5878-d64G, d71M, d76G] | 200 µg/mL | 200 µg/mL | 200 µg/mL | 200 µg/mL |  |  |
| KTMMQSGGTFGTFMAAGMGIR [KU-5878-I73A] | > 300 µg/mL | > 300 µg/mL | > 300 µg/mL | > 300 µg/mL |  |  |
| KTMMSSGGTFGTFMAIGMGIR [KU-5878-Q62S] | > 300 µg/mL | > 300 µg/mL | > 300 µg/mL | > 300 µg/mL |  |  |
| KTMMQSGGTWGTFMAIGMGIR [KU-5878-F67W] | 80 µg/mL | 80 µg/mL | 90 µg/mL | 80 µg/mL |  |  |
| KT-MQS-GTFGTF--IG-GIR [5878-d60M, d64G, d71M, d72A, d75M] | 200 µg/mL | 200 µg/mL | 200 µg/mL | 200 µg/mL |  |  |
| KTMMQAGGTFGTFMAIGMGIR [KU-5878-S63A] | 300 µg/mL | 300 µg/mL | > 300 µg/mL | 300 µg/mL |  |  |
| KTMMQSGGTFGTFM-IGMGIR [Peptide 5878-d72A] | 150 µg/mL | 150 µg/mL | 160 µg/mL | 170 µg/mL |  |  |
| RTMMQSGGTFGTFMAIGMGIR [KU-5878-K58R] | 120 µg/mL | 120 µg/mL | 120 µg/mL | 120 µg/mL |  |  |
| KTMMQSGGTFGAFMAIGMGIR [KU-5878-T69A] | 300 µg/mL | 300 µg/mL | 300 µg/mL | 300 µg/mL |  |  |
| KTMMKSGGTFGTFMAIGMGIR [KU-5878-Q62K] | 80 µg/mL | 90 µg/mL | 90 µg/mL | 90 µg/mL |  |  |
| KRMMQSGGTFGTFMAIGMGIR [KU-5878-T59R] | 25 µg/mL | 30 µg/mL | 30 µg/mL | 30 µg/mL |  |  |
| KTMMQSGGTFGTFMAWGMGIR [KU-5878-I73W] | 300 µg/mL | 300 µg/mL | > 300 µg/mL | 300 µg/mL |  |  |
| KK-MKKGGKFGTFMAIG-GIR [Peptide K4-d60M-d75M] | 200 µg/mL | 200 µg/mL | 210 µg/mL | 200 µg/mL |  |  |
| KTMMQSGGTAGTFMAIGMGIR [KU-5878-F67A] | > 300 µg/mL | > 300 µg/mL | > 300 µg/mL | > 300 µg/mL |  |  |
| KTMMQRGGTFGTFMAIGMGIR [KU-5878-S63R] | 15 µg/mL | 20 µg/mL | 25 µg/mL | 20 µg/mL |  |  |
| KTMMQSGGTFGTF-AIGMGIR [Peptide 5878-d71M] | 250 µg/mL | 250 µg/mL | 300 µg/mL | 300 µg/mL |  |  |
| ATMMQSGGTFGTFMAIGMGIR [KU-5878-K58A] | > 300 µg/mL | > 300 µg/mL | > 300 µg/mL | > 300 µg/mL |  |  |
| KTMMQSGGTFGTFMGIGMGIR [KU-5878-A72G] | > 300 µg/mL | > 300 µg/mL | > 300 µg/mL | > 300 µg/mL |  |  |
| B1 |  |  |  |  | Insoluble | Insoluble |
